From ChEMBL document CHEMBL1201862, “PubChem BioAssay data set” (2004)
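Five concentrations, 48 hours, 96-well plates. GI50 = concentration required for 50% inhibition of growth.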 The source made the active and inactive calls. Rule as the data show it: active = GI50 up to about 1.1 µM and inactive = higher.

Tests used:
Assay in all cases: NCI tumour cell line growth inhibition, 48 h
[1] = test system: BT-549
[2] = test system: COLO 205
[3] = test system: HCC 2998
[4] = test system: HCT-116
[5] = test system: HOP-62
[6] = test system: HT-29
[7] = test system: K562
[8] = test system: MDA-MB-231
[9] = test system: MDA-MB-435
[10] = test system: MDA-N
[11] = test system: Malme-3M
[12] = test system: SF-268
[13] = test system: SN12C
[14] = test system: T47D
[15] = test system: TK-10
[16] = test system: U-251
[17] = test system: UACC-62
[18] = test system: CCRF-CEM
[19] = test system: MOLT-4

| Compound | GI50 [1] | GI50 [2] | GI50 [3] | GI50 [4] | GI50 [5] | GI50 [6] | GI50 [7] | GI50 [8] | GI50 [9] | GI50 [10] | GI50 [11] | GI50 [12] | GI50 [13] | GI50 [14] | GI50 [15] | GI50 [16] | GI50 [17] | GI50 [18] | GI50 [19] |
| --- | --- | --- | --- | --- | --- | --- | --- | --- | --- | --- | --- | --- | --- | --- | --- | --- | --- | --- | --- |
| O=C(O)CCc1nc(-c2ccccc2-n2cccc2)no1 | > 100 µM (inactive) | > 100 µM (inactive) | > 100 µM (inactive) | > 100 µM (inactive) | > 100 µM (inactive) | 57.3 µM (inactive) | > 100 µM (inactive) | > 100 µM (inactive) | 16.6 µM (inactive) | 31.4 µM (inactive) | 52.6 µM (inactive) | > 100 µM (inactive) | > 100 µM (inactive) | > 100 µM (inactive) | > 100 µM (inactive) | > 100 µM (inactive) | > 100 µM (inactive) | – | – |
| O=C1CC(c2ccccc2)n2c(nc3ccccc32)N1 (configuration not stated) | 29.2 µM (inactive) | > 100 µM (inactive) | – | > 100 µM (inactive) | > 100 µM (inactive) | > 100 µM (inactive) | 23.7 µM (inactive) | > 100 µM (inactive) | 37.8 µM (inactive) | 73.5 µM (inactive) | 38.1 µM (inactive) | > 100 µM (inactive) | – | 25.4 µM (inactive) | > 100 µM (inactive) | 71.8 µM (inactive) | 72.9 µM (inactive) | > 10 µM (inactive) | 65.8 µM (inactive) |
| Oc1ccc2c(c1)-c1c(c3ccccc3n1CCN1CCOCC1)CC2 | 43.7 µM (inactive) | 41.7 µM (inactive) | – | 31.4 µM (inactive) | 47 µM (inactive) | 39.6 µM (inactive) | > 100 µM (inactive) | > 100 µM (inactive) | 30.9 µM (inactive) | 33.7 µM (inactive) | 31.3 µM (inactive) | 59.4 µM (inactive) | > 100 µM (inactive) | 84.7 µM (inactive) | 28.6 µM (inactive) | 42.3 µM (inactive) | 27.5 µM (inactive) | > 100 µM (inactive) | > 100 µM (inactive) |
| O=c1[nH]c(N/N=C\C(=N/Nc2nc3ccccc3c(=O)[nH]2)C(O)C(O)C(O)CO)nc2ccccc12 (configuration not stated) | > 100 µM (inactive) | > 100 µM (inactive) | – | > 100 µM (inactive) | > 100 µM (inactive) | > 100 µM (inactive) | > 100 µM (inactive) | > 100 µM (inactive) | > 100 µM (inactive) | > 100 µM (inactive) | – | > 100 µM (inactive) | > 100 µM (inactive) | > 100 µM (inactive) | > 100 µM (inactive) | > 100 µM (inactive) | > 100 µM (inactive) | > 100 µM (inactive) | > 100 µM (inactive) |
| Cc1ccc(S(=O)(=O)n2cc(-c3cnc(N)c(Br)n3)c3ccccc32)cc1 | 22.7 µM (inactive) | 2.46 µM (inactive) | 3.29 µM (inactive) | 0.83 µM (active) | 6.73 µM (inactive) | 1.47 µM (inactive) | 0.841 µM (active) | 2.54 µM (inactive) | 0.238 µM (active) | 0.246 µM (active) | – | 2.96 µM (inactive) | 1.31 µM (inactive) | 6.76 µM (inactive) | 11.4 µM (inactive) | 0.902 µM (active) | 3.7 µM (inactive) | – | 0.977 µM (active) |
| O=c1c2ccccc2[se]n1-c1cccnc1 | 31.3 µM (inactive) | 20 µM (inactive) | 11.4 µM (inactive) | 30.5 µM (inactive) | 24.9 µM (inactive) | 43.8 µM (inactive) | 40.6 µM (inactive) | 25.1 µM (inactive) | 22.2 µM (inactive) | 22.6 µM (inactive) | 21.7 µM (inactive) | 27 µM (inactive) | 29.6 µM (inactive) | 21.7 µM (inactive) | 24.2 µM (inactive) | 26.7 µM (inactive) | 13 µM (inactive) | – | 31.3 µM (inactive) |
| COC(=O)[C@@H]1CC(C(CN)c2cn(C(=O)OC(C)(C)C)c3ccccc23)C(=O)N1C(=O)OC(C)(C)C (some centres not stated) | 31.6 µM (inactive) | 17.3 µM (inactive) | – | 44.3 µM (inactive) | 86.7 µM (inactive) | 24.8 µM (inactive) | 21.9 µM (inactive) | 22.4 µM (inactive) | 21.5 µM (inactive) | 20 µM (inactive) | 22.2 µM (inactive) | 27.5 µM (inactive) | 17.8 µM (inactive) | 44.2 µM (inactive) | 38.9 µM (inactive) | 38.9 µM (inactive) | 15.1 µM (inactive) | 14.4 µM (inactive) | 17.1 µM (inactive) |
| CC1=CC(=O)/C(=C/n2c(=S)[nH]c3ccc([N+](=O)[O-])cc32)C(=O)O1 | > 100 µM (inactive) | > 100 µM (inactive) | > 100 µM (inactive) | > 100 µM (inactive) | > 100 µM (inactive) | > 100 µM (inactive) | > 100 µM (inactive) | > 100 µM (inactive) | > 100 µM (inactive) | > 100 µM (inactive) | – | > 100 µM (inactive) | > 100 µM (inactive) | > 100 µM (inactive) | > 100 µM (inactive) | > 100 µM (inactive) | > 100 µM (inactive) | > 100 µM (inactive) | > 100 µM (inactive) |
| CC1=NNC(=O)C1C1CC(c2c[nH]c3ccccc23)=NNC1=O (configuration not stated) | > 100 µM (inactive) | > 100 µM (inactive) | – | > 100 µM (inactive) | > 100 µM (inactive) | > 100 µM (inactive) | > 100 µM (inactive) | > 100 µM (inactive) | > 100 µM (inactive) | > 100 µM (inactive) | > 100 µM (inactive) | > 100 µM (inactive) | > 100 µM (inactive) | > 100 µM (inactive) | > 100 µM (inactive) | > 100 µM (inactive) | > 100 µM (inactive) | > 100 µM (inactive) | > 100 µM (inactive) |
| O=C1C=CC(=O)[C@H]2C3C=CC(C4C3C3(Cl)C(Cl)=C(Cl)[C@]4(Cl)C3(Cl)Cl)[C@@H]12 (some centres not stated) | 5.96 µM (inactive) | 5.7 µM (inactive) | – | 3.61 µM (inactive) | 17.1 µM (inactive) | 3.66 µM (inactive) | 3.14 µM (inactive) | 4.45 µM (inactive) | 2.51 µM (inactive) | 4.52 µM (inactive) | 10.6 µM (inactive) | 5.71 µM (inactive) | 5.58 µM (inactive) | 5.48 µM (inactive) | 16.8 µM (inactive) | 3.46 µM (inactive) | 8.83 µM (inactive) | 2.95 µM (inactive) | 3.75 µM (inactive) |
| Cc1cn([C@H]2C[C@@H]3[C@@H](COC(CCl)N3O)O2)c(=O)[nH]c1=O (some centres not stated) | > 100 µM (inactive) | > 100 µM (inactive) | – | > 100 µM (inactive) | > 100 µM (inactive) | > 100 µM (inactive) | > 100 µM (inactive) | – | > 100 µM (inactive) | > 100 µM (inactive) | 41.3 µM (inactive) | > 100 µM (inactive) | > 100 µM (inactive) | > 100 µM (inactive) | > 100 µM (inactive) | > 100 µM (inactive) | > 100 µM (inactive) | > 100 µM (inactive) | > 100 µM (inactive) |
| COc1cc(S(=O)(=O)Nc2ccc(-c3csc(N4C(=O)CSC4c4cccc(Oc5ccccc5)c4)n3)cc2)ccc1Cl (configuration not stated) | 23.7 µM (inactive) | 29.4 µM (inactive) | – | 29.9 µM (inactive) | 74.3 µM (inactive) | 47 µM (inactive) | 31.9 µM (inactive) | – | 33.5 µM (inactive) | 23.9 µM (inactive) | 43.4 µM (inactive) | 24.3 µM (inactive) | 61.4 µM (inactive) | 7.48 µM (inactive) | – | – | 36.9 µM (inactive) | 23.8 µM (inactive) | 52 µM (inactive) |
| CCOC(=O)N(CC)c1c(C(F)(F)F)cc(-c2ccccc2)[nH]c1=O | 75 µM (inactive) | 32.4 µM (inactive) | 54.2 µM (inactive) | 48.5 µM (inactive) | 73.5 µM (inactive) | 61.1 µM (inactive) | 23.1 µM (inactive) | > 100 µM (inactive) | 22.8 µM (inactive) | 23.3 µM (inactive) | – | – | 48.6 µM (inactive) | 32.7 µM (inactive) | 97.9 µM (inactive) | 55.2 µM (inactive) | 66.2 µM (inactive) | 16.4 µM (inactive) | 25.8 µM (inactive) |
| CC1C2(C)OC(=N)C(C#N)(C(c3cccc([N+](=O)[O-])c3)O2)C1(C#N)C#N (configuration not stated) | 31 µM (inactive) | 13.8 µM (inactive) | – | 18.5 µM (inactive) | – | 26.4 µM (inactive) | 14.6 µM (inactive) | 14.6 µM (inactive) | – | 16.5 µM (inactive) | 26.2 µM (inactive) | 33 µM (inactive) | 14.9 µM (inactive) | 13.7 µM (inactive) | 42.1 µM (inactive) | 21.9 µM (inactive) | 17.9 µM (inactive) | 15.6 µM (inactive) | 36.3 µM (inactive) |
| O=C1Nc2ccc(Br)cc2/C1=C/C(=O)c1ccccc1 | 8.59 µM (inactive) | 2.11 µM (inactive) | 15.1 µM (inactive) | 4.22 µM (inactive) | 22.7 µM (inactive) | 1.59 µM (inactive) | 5.57 µM (inactive) | 15.5 µM (inactive) | 16.2 µM (inactive) | – | 6.37 µM (inactive) | 19.5 µM (inactive) | 4.2 µM (inactive) | 14.7 µM (inactive) | 1.82 µM (inactive) | 17.9 µM (inactive) | 16 µM (inactive) | 1.9 µM (inactive) | 2.64 µM (inactive) |
| CC(=O)Nc1ccc(/C=C/[N+](=O)[O-])cc1 | 6.15 µM (inactive) | 2.53 µM (inactive) | – | 2.42 µM (inactive) | 7.96 µM (inactive) | 1.85 µM (inactive) | 2 µM (inactive) | 1.81 µM (inactive) | 2.82 µM (inactive) | 2.24 µM (inactive) | 3.29 µM (inactive) | 4.67 µM (inactive) | 3.37 µM (inactive) | 4.1 µM (inactive) | 1.75 µM (inactive) | 3.15 µM (inactive) | 2 µM (inactive) | 2.33 µM (inactive) | 1.96 µM (inactive) |
